Source: US20220079960A1, “USE OF P1P DERIVATIVES AS THERAPEUTIC AGENT FOR SEPSIS” (AXCESO BIOPHARMACO.,LTD., priority 2019, published 2022)
Where two headings read alike, the source gives them in different places.

Tests used:
[1] = system: Balb/c mice; experiment: LPS sepsis mouse model: effect of drugs on survival rate; format: in vivo; details: for Survival rate (%): drug 40 μg/mouse i.p. 5 minutes after LPS
Method: For the experiment of the survival rate of mice after LPS administration, 7-week-old Balb/c mice were purchased from Orient Bio and adapted to the laboratory. Then, LPS (Sigma) was dissolved in phosphate buffer solution (PBS) at a concentration of 400 μg/mouse, 200 μg/mouse, 170 μg/mouse, 150 μg/mouse, 125 μg/mouse, and 100 μg/mouse, and 100 uL of each was injected into the abdominal cavity of a mouse.
(§1) To this end, the LPS concentration was determined to be 150 μg/mouse, and the P1P drug was intraperitoneally injected at a concentration of 40 μg/mouse 5 and 60 minutes after intraperitoneal injection of LPS. The survival rate was measured by observation for 72 hours at 12 hour intervals. In another experiment, P1P drug was injected intraperitoneally at a concentration of 40 μg/mouse 1 hour after intraperitoneal injection of LPS of 125 μg/mouse to compare the survival rate of mice. In the same way, the survival rate was measured while changing the P1P concentration.
as §1, with “cP1P” for “P1P”, “mice.” for “mice. In the same way, the survival rate was measured while changing the P1P concentration.”
Soybean lecithin called Lipoid S-75 was used to prepare the liposome, and 20 mg of lecithin was dissolved in 1 mL of chloroform. P1P or cP1P was dissolved in 1 mL of chloroform/methanol (2:1, v/v) solvent in an amount of 2 mg, 1 mg or 0.5 mg, respectively, and mixed with the lecithin solution. A thin lipid film was made by removing the organic solvent from the mixed solution using nitrogen gas or a rotary evaporator. The thin lipid film was stored in a vacuum desiccator overnight to completely remove the organic solvent remaining on the film. 5 mL of a phosphate buffer solution was added to the thin lipid film and stirred for 30 minutes to prepare multilamellar vesicles (MLV, large liposomes). The prepared MLV particles were sonicated for 2 minutes in an ice bath to make small unilamellar vesicles (SUV) of 100 nm or less. This sonication process was repeated twice. Only the supernatant obtained by centrifugation of the prepared SUV at 12000 rpm for 5 minutes was used in the experiment. Liposomes containing P1P or cP1P drug (P1P-liposomes/cP1P-liposomes) were used in an experiment to increase the survival rate of mice using LPS. To this end, LPS of 170 μg/mouse, which is higher than the conventional LPS concentration (125-150 μg/mouse), was injected into the abdominal cavity of the mouse. P1P or cP1P drug was administered at 40 μg/mouse 5 minute after LPS administration, and 100 μl of P1P-liposomes and cP1P-liposomes (P1P and cP1P of about 40 μg/mouse) were injected into the abdominal cavity of the mouse, and the survival rate change was determined over time.
The effect of P1P to treat sepsis was tested under the same conditions as described in the experimental method. P1P of 40 μg/mouse was administered intraperitoneally and intravenously 5 minutes after intraperitoneal injection of LPS of 150 μg/mouse. […] When the P1P drug was administered 1 hour after LPS administration, the survival rate was about 40% for intraperitoneal injection and 20% for intravenous injection (FIG. 2b). These indicate that P1P effectively ameliorated sepsis induced after LPS treatment. Furthermore, P1P of 40 μg/mouse was administered by intraperitoneal injection 1 hour after intraperitoneal injection of 125 μg/mouse of LPS. […] In the case of 20 μg/mouse concentration, the survival rate was 80%, and in the case of 10 μg/mouse concentration, the survival rate was about 60% (FIG. 3b). It was confirmed that P1P increased the survival rate in a concentration-dependent manner. […]

[2] = system: TNF-α; experiment: Inflammatory cytokine (TNF-α) secretion after LPS treatment in macrophages, ELISA; format: cell-based; details: Mus musculus
Method: The macrophage cell line used in the experiment was Raw 264.7 cell line purchased from ATCC, and Dulbeco's Modified Eagle's Media high glucose (with 10% FBS, 0.5% P/S) was used as a medium for culturing macrophages. Macrophages were cultured at 37° C., 5% CO2 incubator. Macrophages were treated with P1P or cP1P drugs at concentrations of 0.02 μM, 0.1 uM, 0.5 μM and 1 μM, respectively and then LPS of 1 ng/ml after 6 hours, and cultured for 4 hours. And then changes of inflammatory cytokines (Tumor necrosis factor alpha, TNF-α) were measured by the manufacturer's method using ELISA (BD OPTEIAT™). As a comparison group, S1P was used at the same concentration and conditions.
To this end, macrophage cell lines were treated with LPS to increase inflammatory cytokines, and the efficacy of P1P and derivatives thereof on inflammatory cytokine secretion was evaluated. Macrophage cell lines were treated with P1P drug or cP1P drug, and 6 hours later, treated with LPS at a concentration of 500 ng/mL for 4 hours.

[3] = system: Human umbilical vein endothelial cell (HUVEC); experiment: Proliferation of human vascular endothelial cells, MTT assay; format: cell-based; details: 10 nM, 100 nM and 1000 nM, 48 hours, compared with S1P (FIG. 6)
Method: Human umbilical vein endothelial cell (HUVEC) used in the experiment was purchased from Promocell, and cultured in an incubator at 37° C., 5% CO2 using Endothelial Cell Growth Medium 2 as a culture medium. To confirm the proliferation effect of P1P drug, HUVEC cells were treated with P1P or cP1P drug at concentrations of 10 nM, 100 nM and 1000 nM, respectively, and cultured for 48 hours. The cell proliferation rate was measured according to the manufacturer's method using MTT assay (Molecular Probes). As a comparison group, S1P was used at the same concentration and conditions.

[4] = system: Human umbilical vein endothelial cell (HUVEC); experiment: Survival of human vascular endothelial cells under oxidative stress (H2O2), MTT assay; format: cell-based; details: for cell viability compared with S1P: 500 μM hydrogen peroxide (FIG. 7)
Method: Human umbilical vein endothelial cell (HUVEC) used in the experiment was purchased from Promocell, and cultured in an incubator at 37° C., 5% CO2 using Endothelial Cell Growth Medium 2 as a culture medium. To confirm the efficacy of P1P drug in an oxidative stress environment, HUVEC cells were pretreated with P1P or cP1P at concentrations of 10 nM, 100 nM, and 1000 nM for 1 hour, and then exposed to oxidative stress by treatment with 500 μM hydrogen peroxide (H2O2) for 6 hours. The efficacy of the […] drug on the survival of HUVEC cells after 6 hours of exposure to oxidative stress was confirmed by MTT assay. As a comparison group, S1P was used at the same concentration and conditions.
In addition to causing inflammation, LPS promotes oxidative stress to promote vascular endothelial cell death. To analyze the effect of the present drugs, oxidative stress was induced in vascular endothelial cells by treatment with 500 μM of hydrogen peroxide.

[5] = system: SIRT1; experiment: Expression of SIRT1 in macrophages, RT-PCR; format: cell-based; details: Raw 264.7 macrophages; 0.01-1 μM; RT-PCR 24 hours later (FIG. 8)
Method: The macrophage cell line used in the experiment was Raw 264.7 cell line purchased from ATCC, and Dulbeco's Modified Eagle's Media high glucose (with 10% FBS, 0.5% P/S) was used as a medium for culturing macrophages. Macrophages were cultured in an incubator at 37° C., 5% CO2. Macrophages were treated with P1P or cP1P drug at concentrations of 0.01 μM, 0.1 μM, and 1 μM, respectively and then LPS of 100 ng/ml after 4 hours, and cultured for 24 hours. The change in SIRT1 protein was measured by RT-PCR.
Expression of SIRT1 protein is very important in the treatment of sepsis. When sepsis is induced, the synthesis and activity of SIRT1 protein is reduced. Macrophages were treated with P1P drugs during culture, and the expression level of SIRT1 protein was confirmed by RT-PCR 24 hours later.

[6] = Solubility in water; format: physicochemical
[7] = S1P administered directly; cited from earlier work
[8] = LPS 125 μg/mouse i.p., drug 40 μg/mouse i.p. 1 hour after LPS (FIG. 3a, FIG. 4b)
[9] = LPS 150 μg/mouse i.p., drug 40 μg/mouse intraperitoneally 5 minutes after LPS (FIG. 2a, FIG. 4a)
[10] = RAW264.7, read-out: inhibitory efficacy on inflammatory cytokine (TNF-α) production

| SMILES | Survival rate (%) ([1]; LPS 150 μg/mouse i.p., 0 h) | Survival rate (%) ([1]; LPS 150 μg/mouse i.p., 12 h) | Survival rate (%) ([1]; LPS 150 μg/mouse i.p., 24 h) | Survival rate (%) ([1]; LPS 150 μg/mouse i.p., 36 h) | Survival rate (%) ([1]; LPS 150 μg/mouse i.p., 48 h) | Survival rate (%) ([1]; LPS 150 μg/mouse i.p., 72 h) | survival rate [1, 8] | survival rate [1, 9] [%] | Survival rate (%) ([1]; LPS 170 μg/mouse i.p., 0 h) | Survival rate (%) ([1]; LPS 170 μg/mouse i.p., 12 h) | Survival rate (%) ([1]; LPS 170 μg/mouse i.p., 24 h) | Survival rate (%) ([1]; LPS 170 μg/mouse i.p., 36 h) | Survival rate (%) ([1]; LPS 170 μg/mouse i.p., 48 h) | Survival rate (%) ([1]; LPS 170 μg/mouse i.p., 72 h) | inhibition at 1 µM [2, 10] [%] | efficacy on proliferation of vascular endothelial cells [3] | cell viability compared with S1P [4] | expression level of SIRT1 protein [5] | solubility in water [6] | also measured |
| --- | --- | --- | --- | --- | --- | --- | --- | --- | --- | --- | --- | --- | --- | --- | --- | --- | --- | --- | --- | --- |
| CCCCCCCCc1ccc(CCC(N)(CO)CO)cc1 [FTY720, fingolimod, reference compound] | 100 | 100 | 40 | 20 | 20 | 20 | – | – | – | – | – | – | – | – | – | – | – | – | – | – |
| CCCCCCCCCCCCCC[C@@H](O)[C@H](O)[C@H](N)COP(=O)(O)O (stereo in doubt) [P1P, Phytosphingosine-1-phosphate] | 100 | 100 | 100 | – | 80 | 80 | 100% | ≥ 80 | 100 | 80 | 40 | 20 | 20 | 20 | 49 | higher than that of S1P | higher cell viability than S1P | increased SIRT1 protein even at very low concentrations | poorly soluble in water | survival rate ([1]; LPS 125 μg/mouse, drug 10 μg/mouse 60 minutes after LPS (FIG. 3b)): about 60%; survival rate ([1]; LPS 125 μg/mouse, drug 20 μg/mouse 60 minutes after LPS (FIG. 3b)): 80%; survival of mice while varying drug concentration ([1]; LPS 125 μg/mouse, drug 40 μg/mouse 60 minutes after LPS, up to 72 hours (FIG. 3b)): all of them survived up to 72 hours; survival rate ([1]; LPS 150 μg/mouse i.p., drug 40 μg/mouse intravenously 5 minutes after LPS (FIG. 2a)): ≥ 80%; survival rate ([1]; LPS 150 μg/mouse i.p., drug by intraperitoneal injection 1 hour after LPS (FIG. 2b)): about 40%; survival rate ([1]; LPS 150 μg/mouse i.p., drug by intravenous injection 1 hour after LPS (FIG. 2b)): 20%; cell viability ([4]; 500 μM hydrogen peroxide, untreated control about 40%): ≥ 70% |
| CCCCCCCCCCCCC/C=C/[C@@H](O)[C@@H](N)COP(=O)(O)O [S1P, sphingosine-1-phosphate, reference compound] | 100 | 100 | – | 40 | 40 | 40 | – | – | – | – | – | – | – | – | – | – | – | – | – | inhibition at 1 µM ([2]; RAW264.7, 1 μM, Raw 264.7 macrophages, drug 6 hours before LPS, LPS 4 hours, ELISA, read-out: inhibitory efficacy on inflammatory cytokine (TNF-α) production): 19%; degradation rate in the blood [7]: high degradation rate in the blood |
| CCCCCCCCCCCCCC[C@@H](O)[C@H]1OP(=O)(O)OC[C@@H]1N [cP1P, O-cyclic P1P] | – | – | – | – | – | – | about 100% | ≥ 70 | 100 | 80 | 60 | 40 | 40 | 40 | 35 | higher than that of S1P | higher cell viability than S1P | increased SIRT1 protein even at very low concentrations | poorly soluble in water | – |
